Counter-ions that a name gives are not always drawn.
Assays:
Type in all cases: in vivo
[1] = system: glyphosate-sensitive Amaranthus palmeri; assay: Herbicidal effect, foliar spray on potted weeds in greenhouse; settings: rating 0 to 100, 14 days after foliar spray, 200 L/ha
Procedure: (§1) In a plastic pot filled with soli were seeded glyphosate-resistant Amaranthus palmeri in which the number of copies of EPSPS gene had been increased (produced by Azlin Seed Service) and glyphosate-sensitive Amaranthus palmeri (produced by Azlin Seed Service). The weeds were cultivated in a greenhouse for 18 days, and then an aqueous spray liquid [i.e., a liquid prepared by diluting a predetermined amount of a trifludimoxazin formulation (i.e., an emulsifiable concentrate prepared by mixing 20 parts of trifludimoxazin with 80 parts of a liquid cocktail (i.e., a mixture of 5 parts of cyclohexanone and 1 part of SORPOL 2680X (manufactured by TOHO Chemical Industry Co., Ltd.))) with water containing a spreading agent] was sprayed uniformly from above the weeds at the amount of 200 L/ha using a sprayer. Subsequently, the weeds were allowed to grow in a greenhouse for 14 days, and then the herbicidal effect was examined. As a reference example, the same procedure was carried out, except that the trifludimoxazin formulation was replaced with a predetermined amount of a glyphosate formulation (i.e., a soluble liquid containing 660 g/L of glyphosate potassium salt: “ROUNDUP MAXLOAD” (manufactured by Nissan Chemical Corporation). The results are shown in the table 1.

[2] = system: glyphosate-resistant Amaranthus palmeri in which the number of copies of EPSPS gene had been increased; assay: as above; settings: rating 0 to 100, 14 days after foliar spray, 200 L/ha
Procedure: as §1

[3] = system: glyphosate-resistant weeds (Amaranthus palmeri, waterhemp, kochia, marestail, Guernsey fleabane, fleabane, goosegrass, darnel) and volunteer …; assay: Foliar treatment 21 days after seeding, greenhouse pot test (Example 2); settings: foliar treatment at 6.25, 125, 25, 50, 100 or 150 g/ha; 200 L/ha; fourteen days after the treatment
Procedure: In a plastic pot filled with soil are seeded glyphosate-resistant Amaranthus palmeri in which the number of copies of EPSPS gene has been increased, glyphosate-resistant waterhemp in which the number of copies of EPSPS gene has been increased, glyphosate-resistant kochia in which the number of copies of EPSPS gene has been increased, marestail which is resistant to glyphosate by involving an ABC transporter, Guernsey fleabane which is resistant to glyphosate by involving an ABC transporter, fleabane which is resistant to glyphosate by involving an ABC transporter, glyphosate-resistant goosegrass having Thr102Ile, glyphosate-resistant goosegrass having Pro106Ser, glyphosate-resistant goosegrass having Pro106Ala, glyphosate-resistant goosegrass having Pro106Leu, glyphosate-resistant goosegrass having Thr102Ile and Pro106Ser, glyphosate-resistant darnel having Thr102Ile, glyphosate-resistant darnel having Pro106Ser, glyphosate-resistant darnel having Pro106Ala, glyphosate-resistant darnel having Pro106Leu, volunteer glyphosate-tolerant soybean, and volunteer glyphosate-tolerant cotton. The plants are cultivated in a greenhouse for 21 days, and then trifludimoxazin is applied to foliage of the plants at application rate of 6.25, […], 25, 50, 100 or 150 g/ha. The amount of a liquid sprayed is 200 L/ha. Subsequently, the plants are cultivated in a greenhouse.

[4] = system: glyphosate-resistant weeds (Amaranthus palmeri, waterhemp, kochia, marestail, Guernsey fleabane, fleabane, goosegrass, darnel) and volunteer …; assay: Soil treatment on day of seeding, greenhouse pot test (Example 1); settings: soil treatment at 6.25, 12.5, 25, 50, 100 or 150 g/ha; 200 L/ha; twenty-eight days after the treatment
Procedure: In a plastic pot filled with soil are seeded glyphosate-resistant Amaranthus palmeri in which the number of copies of EPSPS gene has been increased, glyphosate-resistant waterhemp in which the number of copies of EPSPS gene has been increased, glyphosate-resistant kochia in which the number of copies of EPSPS gene has been increased, marestail which is resistant to glyphosate by involving an ABC transporter, Guernsey fleabane which is resistant to glyphosate by involving an ABC transporter, fleabane which is resistant to glyphosate by involving an ABC transporter, glyphosate-resistant goosegrass having Thr102Ile, glyphosate-resistant goosegrass having Pro106Ser, glyphosate-resistant goosegrass having Pro106A1a, glyphosate-resistant goosegrass having Pro106Leu, glyphosate-resistant goosegrass having Thr102Ile and Pro106Ser, glyphosate-resistant darnel having Thr102Ile, glyphosate-resistant darnel having Pro106Ser, glyphosate-resistant darnel having Pro106Ala, glyphosate-resistant darnel having Pro106Leu, volunteer glyphosate-tolerant soybean, and volunteer glyphosate-tolerant cotton. On the same day, the soil is treated with trifludimoxazin at the application rate of 6.25, 12.5, 25, 50, 100 or 150 g/ha. The amount of a liquid sprayed is 200 L/ha. Subsequently, the plants are cultivated in a greenhouse.

SMILES | Effect on glyphosate-sensitive Amaranthus palmeri ([1]; application rate 6.25 g/ha) | Effect on glyphosate-sensitive Amaranthus palmeri ([1]; application rate 12.5 g/ha) | Effect on glyphosate-sensitive Amaranthus palmeri ([1]; application rate 25 g/ha) | Effect on glyphosate-resistant Amaranthus palmeri ([2]; application rate 6.25 g/ha) | Effect on glyphosate-resistant Amaranthus palmeri ([2]; application rate 12.5 g/ha) | Effect on glyphosate-resistant Amaranthus palmeri ([2]; application rate 25 g/ha) | effect against the weeds [3] | effect against the weeds [4] | Effect on glyphosate-sensitive Amaranthus palmeri ([1]; application rate 385 g/ha) | Effect on glyphosate-sensitive Amaranthus palmeri ([1]; application rate 1540 g/ha) | Effect on glyphosate-resistant Amaranthus palmeri ([2]; application rate 1540 g/ha) | Effect on glyphosate-resistant Amaranthus palmeri ([2]; application rate 6160 g/ha)
C#CCN1C(=O)C(F)(F)Oc2cc(F)c(-n3c(=O)n(C)c(=S)n(C)c3=O)cc21 [Trifludimoxazin, trifludimoxazin] | 65 | 70 | 80 | 100 | 100 | 100 | significant effect | significant effect |  |  |  | 
O=C(O)CNCP(=O)(O)O [Glyphosate potassium salt, glyphosate potassium salt] |  |  |  |  |  |  |  |  | 100 | 100 | 20 | 70

Reference: patent publication US20220053764A1, “METHOD OF CONTROLLING WEEDS” (SUMITOMO CHEMICAL COMPANY, LIMITED, priority 2018, published 2022)
